Source: ChEMBL document CHEMBL1926629, “Design, synthesis and insight into the structure-activity relationship of 1,3-disubstituted indazoles as novel HIF-1 inhibitors” (Bioorg Med Chem Lett, 2011)

Legend:
[1] = Inhibition of hypoxia-induced HIF-1 transcriptional activity by luciferase reporter assay
[2] = target: Hypoxia-inducible factor 1-alpha (Homo sapiens) (UniProt Q16665); experiment: Inhibition of hypoxia-induced HIF1alpha protein reduction in human Hep3B cells by Western blot analysis; format: cell-based; details: Hep 3B2
Sequence of Hypoxia-inducible factor 1-alpha (Homo sapiens) (Q16665 whole entry, looked up): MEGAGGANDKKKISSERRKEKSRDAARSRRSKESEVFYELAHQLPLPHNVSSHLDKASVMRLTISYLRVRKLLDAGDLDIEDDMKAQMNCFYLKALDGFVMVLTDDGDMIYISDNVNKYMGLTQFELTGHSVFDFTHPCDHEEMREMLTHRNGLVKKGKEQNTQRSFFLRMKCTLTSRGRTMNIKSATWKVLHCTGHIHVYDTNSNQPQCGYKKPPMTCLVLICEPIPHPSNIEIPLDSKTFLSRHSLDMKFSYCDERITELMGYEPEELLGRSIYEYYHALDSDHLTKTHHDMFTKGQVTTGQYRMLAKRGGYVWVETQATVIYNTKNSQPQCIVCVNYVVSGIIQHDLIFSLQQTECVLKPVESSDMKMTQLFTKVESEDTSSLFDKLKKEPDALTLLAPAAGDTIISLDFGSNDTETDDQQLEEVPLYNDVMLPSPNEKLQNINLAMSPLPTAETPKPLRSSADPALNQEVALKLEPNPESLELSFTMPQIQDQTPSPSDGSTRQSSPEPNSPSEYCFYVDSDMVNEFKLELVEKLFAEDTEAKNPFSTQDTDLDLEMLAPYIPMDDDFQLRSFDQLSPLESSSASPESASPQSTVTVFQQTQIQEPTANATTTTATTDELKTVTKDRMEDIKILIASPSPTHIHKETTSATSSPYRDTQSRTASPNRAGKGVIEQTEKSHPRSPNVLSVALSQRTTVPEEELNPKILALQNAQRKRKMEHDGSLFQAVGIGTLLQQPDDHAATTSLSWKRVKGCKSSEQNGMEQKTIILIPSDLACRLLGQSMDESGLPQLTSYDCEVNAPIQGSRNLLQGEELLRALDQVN

SMILES | IC50 [1] | inhibition [2]
Cn1nc(-c2cc(CO)no2)c2ccccc21 | > 30 µM | –
CNCc1ccc(-c2nn(C)c3ccccc23)o1 | 7.7 µM | –
CC(C)C(=O)OCc1ccc(-c2nn(Cc3ccccc3)c3ccccc23)o1 | 0.74 µM | Dose-dependent effect
OCc1cc(-c2nn(Cc3ccccc3)c3ccccc23)on1 | 23.9 µM | –
CC(C)(C)C(=O)OCc1ccc(-c2nn(Cc3ccccc3)c3ccccc23)o1 | 0.89 µM | –
Cn1nc(-c2ccc(CN=[N+]=[N-])o2)c2ccccc21 | > 30 µM | –
[N-]=[N+]=NCc1ccc(-c2nn(Cc3ccccc3)c3ccccc23)o1 | > 30 µM | –
OCc1cnc(-c2nn(Cc3ccccc3)c3ccccc23)s1 | > 30 µM | –
CN(C)Cc1ccc(-c2nn(C)c3ccccc23)o1 | 8.5 µM | –
NC(=O)c1ccc(-c2nn(Cc3ccccc3)c3ccccc23)o1 | 11.9 µM | –
Cn1nc(-c2ncc(CO)o2)c2ccccc21 | > 30 µM | –
OCC1CN=C(c2nn(Cc3ccccc3)c3ccccc23)O1 (stereo not drawn) | > 30 µM | –
OCc1ccc(-c2[nH]nc3ccccc23)o1 | 5 µM | –
Cn1nc(-c2ccc(CN)o2)c2ccccc21 | > 30 µM | –
CC(=O)OCc1ccc(-c2nn(C)c3ccccc23)o1 | 16.9 µM | –
COC(=O)c1ccc(-c2nn(Cc3ccccc3)c3ccccc23)o1 | 0.9 µM | –
OCc1ccc(-c2nn(Cc3ccccc3)c3ccccc23)o1 | 1.2 µM | –
OCc1cnc(-c2nn(Cc3ccccc3)c3ccccc23)o1 | > 30 µM | –
Cn1nc(-c2ccc(CN3CCCCC3)o2)c2ccccc21 | 2 µM | –
CC(=O)OCc1ccc(-c2nn(Cc3ccccc3)c3ccccc23)o1 | 2.3 µM | –
OCc1coc(-c2nn(Cc3ccccc3)c3ccccc23)n1 | > 30 µM | –
CC(=O)NCc1ccc(-c2nn(C)c3ccccc23)o1 | 13.4 µM | –
Cn1nc(-c2nc(CO)co2)c2ccccc21 | > 30 µM | –
Cn1nc(-c2ncc(CO)s2)c2ccccc21 | > 30 µM | –
Cn1nc(-c2ccc(CO)o2)c2ccccc21 | 8.9 µM | –
Cn1nc(-c2ccc(CN3CCOCC3)o2)c2ccccc21 | 1.9 µM | –
O=S(=O)(c1ccccc1)n1nc(-c2ccc(CO)o2)c2ccccc21 | 1.3 µM | –
